# In US10730874B2 (Shire Human Genetic Therapies, Inc., priority 2018, dated 2020):
# Target: human activated kallikrein enzyme (plasma kallikrein) (Homo sapiens (Human), UniProt P03952)
# Assay: Inhibition of human activated plasma kallikrein, fluorogenic peptide substrate assay, 500 pM enzyme format
# Type: biochemical
# Settings: 500 pM activated kallikrein enzyme, 300 uM Pro-Phe-Arg-7-amido-4-methylcoumarin substrate, 30 min preincubation, 10 min at RT; read-out: Primary Dose Response Assay: Average EC50
# Method in brief: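 Buffer 20 mM Tris pH 7.5, EDTA, NaCl, PEG-400, Triton X-100; 300 uM Pro-Phe-Arg-AMC; enzyme–inhibitor preincubation 30 min RT. Format one: 500 pM kallikrein, 10 min RT reaction; format two: 5 pM kallikrein, 18 h RT reaction. Fluorescence read at 460 nm (380 nm excitation).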
# Sequence of human activated kallikrein enzyme (plasma kallikrein) (P03952 391-638): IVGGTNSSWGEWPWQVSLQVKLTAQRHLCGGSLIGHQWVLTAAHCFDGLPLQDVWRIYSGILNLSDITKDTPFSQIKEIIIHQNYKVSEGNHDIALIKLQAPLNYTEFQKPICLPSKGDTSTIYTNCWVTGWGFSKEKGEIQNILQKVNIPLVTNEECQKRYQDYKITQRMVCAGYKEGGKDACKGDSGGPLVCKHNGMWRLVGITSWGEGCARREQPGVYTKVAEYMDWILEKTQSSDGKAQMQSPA
# Sequence of human activated kallikrein enzyme (plasma kallikrein) (P03952 20-390 partner): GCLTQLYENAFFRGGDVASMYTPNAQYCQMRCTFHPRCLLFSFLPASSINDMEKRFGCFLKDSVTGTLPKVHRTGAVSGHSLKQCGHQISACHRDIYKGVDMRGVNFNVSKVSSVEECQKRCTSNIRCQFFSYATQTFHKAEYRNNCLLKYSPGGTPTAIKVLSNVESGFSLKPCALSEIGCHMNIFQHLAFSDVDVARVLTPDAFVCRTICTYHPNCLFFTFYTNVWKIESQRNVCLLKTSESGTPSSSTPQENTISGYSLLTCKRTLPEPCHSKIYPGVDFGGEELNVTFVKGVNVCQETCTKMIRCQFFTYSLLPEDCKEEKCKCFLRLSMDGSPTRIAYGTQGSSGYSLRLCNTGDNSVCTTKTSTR
row,SMILES,EC50
1,"CCOC(=O)C1CC1c1nn(Cc2cn3cc(C4CC4)ccc3n2)cc1C(=O)NCc1ncn2ccc(Cl)cc12 (stereo not shown) [Example I-113, ethyl 2-(4-(((7-chloroimidazo[1,5-a]pyridin-1-yl)methyl)carbamoyl)-1-((6-cyclopropylimidazo[1,2-a]pyridin-2-yl)methyl)-1H-pyrazol-3-yl)cyclopropane-1-carboxylate]",1 to 10 nM
2,"O=C(O)c1ccc2nc(Cn3cc(C(=O)NCc4ncn5ccc(Cl)cc45)cn3)cn2c1 [Example I-96, 2-((4-(((7-chloroimidazo[1,5-a]pyridin-1-yl)methyl)carbamoyl)-1H-pyrazol-1-yl)methyl)imidazo[1,2-a]pyridine-6-carboxylic acid]",> 2000 nM
3,"O=C(NCc1ncn2ccc(Cl)cc12)c1cnn(Cc2cn3cc(C4CCC4)ccc3n2)c1 [Example I-61, N-((7-chloroimidazo[1,5-a]pyridin-1-yl)methyl)-1-((6-cyclobutylimidazo[1,2-a]pyridin-2-yl)methyl)-1H-pyrazole-4-carboxamide]",1 to 10 nM
4,"Cc1c(Cl)ccc2nc(Cn3cc(C(=O)NCc4ncn5ccc(Cl)cc45)cn3)cn12 [Example I-7, 1-((6-chloro-5-methylimidazo[1,2-a]pyridin-2-yl)methyl)-N-((7-chloroimidazo[1,5-a]pyridin-1-yl)methyl)-1H-pyrazole-4-carboxamide]",1 to 10 nM
5,"O=C(NCc1ncn2ccc(I)cc12)c1cnn(Cc2cn3cc(C4CC4)ccc3n2)c1 [Example I-45, 1-((6-cyclopropylimidazo[1,2-a]pyridin-2-yl)methyl)-N-((7-iodoimidazo[1,5-a]pyridin-1-yl)methyl)-1H-pyrazole-4-carboxamide]",1 to 10 nM
6,"COCCOc1cc(C2CC2)cn2cc(Cn3cc(C(=O)NCc4ncn5ccc(Cl)cc45)cn3)nc12 [Example I-103, N-((7-chloroimidazo[1,5-a]pyridin-1-yl)methyl)-1-((6-cyclopropyl-8-(2-methoxyethoxy)imidazo[1,2-a]pyridin-2-yl)methyl)-1H-pyrazole-4-carboxamide]",< 1 nM
7,"N#Cc1cccc2nc(Cn3cc(C(=O)NCc4ncn5ccc(Cl)cc45)cn3)cn12 [Example I-54, N-((7-chloroimidazo[1,5-a]pyridin-1-yl)methyl)-1-((5-cyanoimidazo[1,2-a]pyridin-2-yl)methyl)-1H-pyrazole-4-carboxamide]",10 to 100 nM
8,"CCOC(=O)C(C)(C)Cc1cc(C2CC2)cn2cc(Cn3cc(C(=O)NCc4ncn5ccc(Cl)cc45)cn3)nc12 [Example I-162, ethyl 3-(2-((4-(((7-chloroimidazo[1,5-a]pyridin-1-yl)methyl)carbamoyl)-1H-pyrazol-1-yl)methyl)-6-cyclopropylimidazo[1,2-a]pyridin-8-yl)-2,2-dimethylpropanoate]",< 1 nM
9,"N#Cc1cc(C2CC2)cn2cc(Cc3nnc(C(=O)NCc4ncn5ccc(Cl)c(F)c45)o3)nc12 [Example I-158, N-((7-chloro-8-fluoroimidazo[1,5-a]pyridin-1-yl)methyl)-5-((8-cyano-6-cyclopropylimidazo[1,2-a]pyridin-2-yl)methyl)-1,3,4-oxadiazole-2-carboxamide]",< 1 nM
10,"O=C(NCc1ncn2ccc(Cl)cc12)c1cnn(Cc2cn3c(F)c(C4CC4)ccc3n2)c1 [Example I-59, N-((7-chloroimidazo[1,5-a]pyridin-1-yl)methyl)-1-((6-cyclopropyl-5-fluoroimidazo[1,2-a]pyridin-2-yl)methyl)-1H-pyrazole-4-carboxamide]",< 1 nM
11,"CC(c1cn2cc(C3CC3)ccc2n1)n1cc(C(=O)NCc2ncn3ccc(Cl)cc23)nn1 (stereo not shown) [Example I-124, N-((7-chloroimidazo[1,5-a]pyridin-1-yl)methyl)-1-(1-(6-cyclopropylimidazo[1,2-a]pyridin-2-yl)ethyl)-1H-1,2,3-triazole-4-carboxamide]",1 to 10 nM
12,"O=C(NCc1ncn2ccc(Br)cc12)c1cnn(Cc2cc3cc(C4CC4)ccn3n2)c1 [Example I-56, N-((7-bromoimidazo[1,5-a]pyridin-1-yl)methyl)-1-((5-cyclopropylpyrazolo[1,5-a]pyridin-2-yl)methyl)-1H-pyrazole-4-carboxamide]",1 to 10 nM
13,"O=C(NCc1ncn2ccc(Cl)cc12)c1cnn(Cc2cn3cc(C4CC4)cc(CN4CCOCC4)c3n2)c1 [Example I-101, N-((7-chloroimidazo[1,5-a]pyridin-1-yl)methyl)-1-((6-cyclopropyl-8-(morpholinomethyl)imidazo[1,2-a]pyridin-2-yl)methyl)-1H-pyrazole-4-carboxamide]",< 1 nM

# More lines, now with the values ahead:
row,EC50,SMILES
1,10 to 100 nM,"O=C(NCc1ncn2ccc(Cl)c(F)c12)c1cn(Cc2[nH]c3ccc(C4CC4)cc3c2C(F)(F)F)nn1 [Example I-211, N-((7-chloro-8-fluoroimidazo[1,5-a]pyridin-1-yl)methyl)-1-((5-cyclopropyl-3-(trifluoromethyl)-1H-indol-2-yl)methyl)-1H-1,2,3-triazole-4-carboxamide]"
2,< 1 nM,"O=C(NCc1ncn2ccc(Cl)cc12)c1cnn(Cc2cn3cc(C4CC4)cnc3n2)c1 [Example I-129, N-((7-chloroimidazo[1,5-a]pyridin-1-yl)methyl)-1-((6-cyclopropylimidazo[1,2-a]pyrimidin-2-yl)methyl)-1H-pyrazole-4-carboxamide]"
3,< 1 nM,"O=C(O)Cc1cc(C2CC2)cn2cc(Cn3cc(C(=O)NCc4ncn5ccc(Cl)c(F)c45)nn3)nc12 [Example I-157b, 2-(2-((4-(((7-chloro-8-fluoroimidazo[1,5-a]pyridin-1-yl)methyl)carbamoyl)-1H-1,2,3-triazol-1-yl)methyl)-6-cyclopropylimidazo[1,2-a]pyridin-8-yl)acetic acid]"
4,< 1 nM,"O=C(NCc1ncn2ccc(Cl)c(F)c12)c1cn(Cc2nc3ccc(C4CC4)cn3c2F)nn1 [Example I-240, N-((7-chloro-8-fluoroimidazo[1,5-a]pyridin-1-yl)methyl)-1-((6-cyclopropyl-3-fluoroimidazo[1,2-a]pyridin-2-yl)methyl)-1H-1,2,3-triazole-4-carboxamide]"
5,< 1 nM,"CCOC(=O)C(C)Cc1cc(C2CC2)cn2cc(Cn3cc(C(=O)NCc4ncn5ccc(Cl)c(F)c45)nn3)nc12 (stereo not shown) [Example I-245a, ethyl 3-(2-((4-(((7-chloro-8-fluoroimidazo[1,5-a]pyridin-1-yl)methyl)carbamoyl)-1H-1,2,3-triazol-1-yl)methyl)-6-cyclopropylimidazo[1,2-a]pyridin-8-yl)-2-methylpropanoate]"
6,< 1 nM,"O=C(NCc1ncn2ccc(Cl)c(F)c12)c1cn(Cc2cn3nc(C4CC4)cc(N4CC(C(=O)O)C4)c3n2)nn1 [Example I-265b, 1-(2-((4-(((7-chloro-8-fluoroimidazo[1,5-a]pyridin-1-yl)methyl)carbamoyl)-1H-1,2,3-triazol-1-yl)methyl)-6-cyclopropylimidazo[1,2-b]pyridazin-8-yl)azetidine-3-carboxylic acid]"
7,< 1 nM,"O=C(NCc1ncn2ccc(Cl)c(F)c12)c1cn(Cc2cn3cc(C4CC4)cc(N4CC5(COC5)C4)c3n2)nn1 [Example I-250, N-((7-chloro-8-fluoroimidazo[1,5-a]pyridin-1-yl)methyl)-1-((6-cyclopropyl-8-(2-oxa-6-azaspiro[3.3]heptan-6-yl)imidazo[1,2-a]pyridin-2-yl)methyl)-1H-1,2,3-triazole-4-carboxamide]"
8,10 to 100 nM,"O=C(NCc1ncn2ccc(Cl)c(F)c12)c1cn(Cc2cc3ccc(C4CC4)cc3s2)nn1 [Example I-229, N-((7-chloro-8-fluoroimidazo[1,5-a]pyridin-1-yl)methyl)-1-((6-cyclopropylbenzo[b]thiophen-2-yl)methyl)-1H-1,2,3-triazole-4-carboxamide]"
9,1 to 10 nM,"O=C(NCc1ncn2ccc(Cl)c(F)c12)c1cn(Cc2cc3ccc(C4CC4)cn3c2)nn1 [Example I-256, N-((7-chloro-8-fluoroimidazo[1,5-a]pyridin-1-yl)methyl)-1-((6-cyclopropylindolizin-2-yl)methyl)-1H-1,2,3-triazole-4-carboxamide]"
10,< 1 nM,"O=C(NCc1ncn2ccc(Cl)c(F)c12)c1cn(Cc2cn3cc(C4CC4)ccc3n2)cn1 [Example I-271, N-((7-chloro-8-fluoroimidazo[1,5-a]pyridin-1-yl)methyl)-1-((6-cyclopropylimidazo[1,2-a]pyridin-2-yl)methyl)-1H-imidazole-4-carboxamide]"
11,< 1 nM,"O=C(NCc1ncn2ccc(Cl)c(F)c12)c1cn(Cc2cc3cc(C4CC4)cnc3s2)nn1 [Example I-189, N-((7-chloro-8-fluoroimidazo[1,5-a]pyridin-1-yl)methyl)-1-((5-cyclopropylthieno[2,3-b]pyridin-2-yl)methyl)-1H-1,2,3-triazole-4-carboxamide]"
12,< 1 nM,"O=C(NCc1ncn2ccc(Br)c(F)c12)c1nnc(Cc2cn3nc(C4CC4)ccc3n2)o1 [Example I-140, N-((7-bromo-8-fluoroimidazo[1,5-a]pyridin-1-yl)methyl)-5-((6-cyclopropylimidazo[1,2-b]pyridazin-2-yl)methyl)-1,3,4-oxadiazole-2-carboxamide]"
13,< 1 nM,"O=C(NCc1ncn2ccc(Cl)c(F)c12)c1cn(Cc2cn3cc(C4CC4)cc(-n4cccn4)c3n2)nn1 [Example I-220, N-((7-chloro-8-fluoroimidazo[1,5-a]pyridin-1-yl)methyl)-1-((6-cyclopropyl-8-(1H-pyrazol-1-yl)imidazo[1,2-a]pyridin-2-yl)methyl)-1H-1,2,3-triazole-4-carboxamide]"

# Same assay, conditions: comparative compounds (Table II); assay format with 500 pM (500 μM in the source) activated kallikrein; read-out: Primary Dose Response Assay: Average EC50
row,EC50,SMILES
1,10 to 100 nM,COCc1nn(Cc2ccc(Cn3ccccc3=O)cc2)cc1C(=O)NCc1c(F)ccc(OC)c1F [reference compound]
2,1 to 10 nM,COCc1nn(Cc2ccc(N3CCCC3)nc2)cc1C(=O)NCc1c(-n2cnnn2)ccc(OC)c1F [reference compound]
